Reference: PubChem BioAssay AID977623 (Broad Institute, 2014)
Inconclusive results are not listed. Activity calls are given as the source filed them.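 The calls were made as follows: active = red signal of normal-ribosome cells cut twice as much as green signal of humanized-ribosome cells, growth loss under 30%; inactive = the rest, inconclusive results apart.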

How the values were obtained:
[1] = growth inhibition of wild-type RFP E. coli, dose response, H69 mutant GFP, cherry-pick (AID 977623); details: E. coli WT-RFP/H69-GFP mixed culture, fluorescence, 24 h
[2] = system: E. coli WT-RFP/H69-GFP mixed culture, fluorescence, 24 h; assay: as above
[3] = E. coli WT-RFP/H69-GFP mixed culture, 24 h, measured here: total growth OD600
[4] = measured here: H69 humanized strain GFP growth

COc1cc2c(cc1[N+](=O)[O-])-c1ccc([N+](=O)[O-])cc1C2
activity change, negative = inhibition ([1]; at 26 µM (top of the series)): 77.3 (inactive)
AC50 [2, 3]: 2.76 µM
AC50 [2, 4]: > 100 µM

Cc1noc(C)c1NC(=O)Nc1ccc2c(c1)C(=O)N([C@H](C)CO)C[C@@H](C)[C@@H](CN(C)C(=O)Nc1ccc3c(c1)OCO3)OCCCC[C@@H](C)O2
activity change, negative = inhibition ([1]; at 50 µM (top of the series)): 153 (inactive)
AC50 [2, 3]: > 100 µM

O=C(O)c1cc([N+](=O)[O-])ccc1NCc1ccccc1
activity change, negative = inhibition ([1]; at 50 µM (top of the series)): 3.75 (inactive)
AC50 [2, 3]: 15.2 µM

Cc1ccc(C)c(NC(=O)CSc2nc3nc(-c4cccs4)cc(C(F)(F)F)c3c(=O)[nH]2)c1
activity change, negative = inhibition ([1]; at 50 µM (top of the series)): 16.1 (inactive)
AC50 [2, 3]: 10.3 µM
AC50 [2, 4]: 12.8 µM

COc1ccc(Cn2c(-c3ccc(Cl)cc3)c[n+]3ccccc23)cc1
activity change, negative = inhibition ([1]; at 50 µM (top of the series)): 26.5 (inactive)
AC50 [2, 3]: 47.2 µM

COc1ccc(NC(=O)c2ccc(-c3ccc([N+](=O)[O-])cc3)o2)cc1
AC50 [2]: > 100 µM (inactive)
AC50 [2, 3]: 5.6 µM
AC50 [2, 4]: > 100 µM

CCOC(=O)c1c(NC(=O)Cc2cccs2)sc(C)c1C
activity change, negative = inhibition ([1]; at 50 µM (top of the series)): 24.9 (inactive)
AC50 [2, 3]: 9.61 µM
AC50 [2, 4]: 47.4 µM

C[C@@H]1CCCCO[C@H](CN(C)C(=O)CCCN(C)C)[C@H](C)CN([C@@H](C)CO)C(=O)c2cc(NC(=O)Nc3cccc4ccccc34)ccc2O1
activity change, negative = inhibition ([1]; at 50 µM (top of the series)): 102 (inactive)
AC50 [2, 4]: > 100 µM

COc1ccc2[nH]c3c(=O)n(CCCCC(=O)NCCC(C)C)c(=S)[nH]c3c2c1
activity change, negative = inhibition ([1]; at 50 µM (top of the series)): 100 (inactive)
